Reference: paper PMC6930633, “Synthesis and Biological Evaluation of BODIPY-PF-543” (Molecules, 2019)

Target: T1, Sphingosine kinase 1 (SK1) (Homo sapiens, UniProt Q9NYA1)
T1 construct: gene SPHK1
Test: recombinant SK1 luminescent ATP-detection kinase activity assay (Echelon kit)
Type: biochemical

T1 sequence (Q9NYA1 whole entry): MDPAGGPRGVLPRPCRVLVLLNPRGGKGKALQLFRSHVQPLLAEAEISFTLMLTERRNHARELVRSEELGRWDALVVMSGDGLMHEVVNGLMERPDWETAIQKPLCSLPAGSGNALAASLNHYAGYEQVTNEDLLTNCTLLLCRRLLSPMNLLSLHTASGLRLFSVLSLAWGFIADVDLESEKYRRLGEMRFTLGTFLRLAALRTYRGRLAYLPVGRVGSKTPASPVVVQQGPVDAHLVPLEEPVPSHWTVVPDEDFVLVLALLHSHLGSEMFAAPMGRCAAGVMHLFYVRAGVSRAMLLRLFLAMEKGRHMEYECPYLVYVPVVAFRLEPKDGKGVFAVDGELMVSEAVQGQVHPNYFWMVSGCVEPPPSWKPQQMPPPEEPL

IC50: 19.9 nM
SMILES: CC1=CC(C)=[N+]2C1=C(c1ccc(-c3cn(Cc4cc(C)cc(OCc5ccc(CN6CCC[C@@H]6CO)cc5)c4)nn3)cc1)c1c(C)cc(C)n1[B-]2(F)F [compound 2, (R)-(1-(4-((3-((4-(4-(5,5-Difluoro-1,3,7,9-tetramethyl-5H-4l4,5l4-dipyrrolo[1,2-c:2’,1’-f][1,3,2]diazaborinin-10-yl)phenyl)-1H-1,2,3-triazol-1-yl)methyl)-5-methylphenoxy)methyl)benzyl)pyrrolidin-2-yl)methanol]
